Experimental data as given in BindingDB's records for patent WO2022103411 (Genentech, 2022).

biological target: T1, von Hippel-Lindau disease tumor suppressor (Homo sapiens, UniProt P40337); experiment: Fluorescence Polarization (FP) VHL Binding Assay
T1 sequence (P40337 whole entry): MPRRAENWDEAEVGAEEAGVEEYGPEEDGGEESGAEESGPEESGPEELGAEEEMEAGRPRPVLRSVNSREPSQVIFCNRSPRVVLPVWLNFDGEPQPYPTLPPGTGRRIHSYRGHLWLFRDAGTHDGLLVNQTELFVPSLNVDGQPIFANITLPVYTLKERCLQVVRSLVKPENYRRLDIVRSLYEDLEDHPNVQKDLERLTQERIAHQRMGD
Procedure: The binding of test compounds to the VHL Elongin B/C complex was measured using a fluorescence polarization tracer competition assay. […] A VHL fluorescence polarization probe consisted of a VHL ligand coupled to carboxytetramethylrhodamine (TAMRA); (2S,4R)-N-(2-(2-(3',6'-bis(dimethylamino)-3-oxo-3H-spiro[isobenzofuran-l,9'-xanthene]-5-carboxamido)ethoxy)-4-(4-methylthiazol-5-yl)benzyl)-4-hydroxy-l-((R)-3-methyl-2-(3-methylisoxazol-5-yl)butanoyl)pyrrolidine-2-carboxamide. […] DMSO was dispensed into wells designated for “VHL control” (without compound) wells. The “Assay Buffer” consisted of 50 mM Tris pH 8.0, 120 mM NaCl, 0.005% Nonidet P-40, and 1% DMSO (v/v). […] Assay Buffer was also dispensed into “no VHL control” wells using the same method. […] “Post-assay” fluorescence polarization measurements were made as described for the “pre-assay” fluorescence measurement. Fluorescence polarization was calculated for each sample; taking into account the “pre-assay” fluorescence measurements and subtracting the fluorescence signal of the compound/VHL only (“pre-assay”) measurements from the “post-assay” fluorescence polarization measurements, for each plane of polarization. The data were analyzed using Genedata Screener software and normalized to the “no VHL control” and “VHL control” (without compound). IC50 values were calculated using a four parameter curve fit (Robust method).

Row | IC50 [nM] | SMILES
1 | 80 | CC(=O)NCCOCc1cn([C@H](C(=O)N2C[C@H](O)CC2C(=O)N[C@H](Cc2ccc(-c3ccccc3)cc2)C(N)=O)C(C)(C)C)nn1 (stereo not given in full) [WO2022103411, Example S14]
2 | 150 | CC(C)(C)[C@@H](C(=O)N1C[C@H](O)CC1C(=O)N[C@H](Cc1ccc(-c2ccccc2)cc1)C(N)=O)n1cc(C2CC2)nn1 (stereo not given in full) [WO2022103411, Example S3]

biological target: T1, von Hippel-Lindau disease tumor suppressor; experiment: VHL HEK-293 BRET Assay
Procedure: The VHL NanoBRET Target Engagement Assay analyzes the apparent affinity of test compounds for VHL in cells by competitive displacement of a VHL NanoBRET tracer reversibly bound to a NanoLuc VHL fusion protein stably expressed in the cells. […] 50 nL of control compound (lOmM; parental unlabeled VHL antagonist; see structure below) and 50 nL of DMSO (negative control) were dispensed into the appropriate control wells. DMSO was backfilled to a final volume of 50 nL as required. […] Max Signal control wells consisted of DMSO only treated wells. Minimum Signal control wells contained of 10 uM parental unlabeled VHL antagonist (control compound - see structure below). […] Background Signal control wells were prepared without tracer for background correction steps. […] The raw BRET ratio values were calculated by dividing the acceptor emission value (610 nm) by the donor emission value (460nm) for each sample. To correct for background, the BRET ratio in the absence of tracer (average of no-tracer control samples) was subtracted from the BRET ratio of each sample. Raw BRET units were converted to milliBRET units (mBU) by multiplying each raw BRET value by 1,000. The normalized NanoBRET signal was calculated relative to the Max Signal control wells (DMSO treated control wells) and the Minimum Signal control wells. Percentage inhibition was calculated relative to the Minimum Signal control and Maximum Signal control wells. IC50 values were derived by four parameter curve fitting using the Robust method.

Row | SMILES | IC50 [nM]
3 | Cc1ncsc1-c1ccc2c(c1)CCCC[C@@H]2NC(=O)[C@@H]1C[C@@H](O)CN1C(=O)[C@@H](n1cc(C2CC2)nn1)C(C)(C)C [WO2022103411, Compound 52] | < 5
4 | Cc1ncsc1-c1ccc2c(c1)CCCC[C@H]2NC(=O)[C@@H]1C[C@@H](O)CN1C(=O)[C@@H](n1cc(C2CC2)nn1)C(C)(C)C [WO2022103411, Compound 53] | 200
5 | CC(C)[C@@H](C(=O)N1C[C@H](O)C[C@H]1C(=O)N[C@H](Cc1ccc(-c2ccccc2)cc1)C(N)=O)n1nnc2ccccc21 [WO2022103411, Compound 38] | 300
6 | Cc1ncsc1-c1ccc(CNC(=O)C2C[C@H](O)CN2C(=O)[C@@H](n2cc(C3(c4cn([C@H](C(=O)N5C[C@H](O)C[C@H]5C(=O)NCc5ccc(-c6scnc6C)cc5)C(C)(C)C)nn4)CC3)nn2)C(C)(C)C)cc1 (stereo not given in full) [WO2022103411, Compound 31] | 310
7 | CC(C)(C)[C@@H](C(=O)N1C[C@H](O)CC1C(=O)N[C@H](Cc1ccc(-c2ccccc2)cc1)C(N)=O)n1cc(C2CC2)nn1 (stereo not given in full) [WO2022103411, Example S3] | 150
8 | COC(=O)c1nnn([C@@H](C(=O)N2C[C@H](O)C[C@H]2C(=O)N[C@H](Cc2ccc(-c3ccccc3)cc2)C(N)=O)C(C)C)c1C [WO2022103411, Compound 35] | 1620
9 | COC(=O)c1nnn([C@H](C(=O)N2C[C@H](O)C[C@H]2C(=O)N[C@H](Cc2ccc(-c3ccccc3)cc2)C(N)=O)C(C)C)c1C [WO2022103411, Compound 34] | 6250
10 | NC(=O)[C@@H](Cc1ccc(-c2ccccc2)cc1)NC(=O)C1C[C@@H](O)CN1C(=O)[C@H](C1CCC1)n1cc(C2CC2)nn1 (stereo not given in full) [WO2022103411, Example S4] | 190

Now from value to compound:

Row | IC50 [nM] | SMILES
11 | 20700 | CC(=O)NCCOCc1cn([C@H](C(=O)N2C[C@H](O)CC2C(=O)N[C@H](Cc2ccc(-c3ccccc3)cc2)C(N)=O)C(C)(C)C)nn1 (stereo not given in full) [WO2022103411, Example S14]
12 | 100 | CCC(C)(C)[C@@H](C(=O)N1C[C@H](O)CC1C(=O)N[C@H](Cc1ccc(-c2ccccc2)cc1)C(N)=O)n1cc(C2CC2)nn1 (stereo not given in full) [WO2022103411, Example S6]
13 | 110 | C=CC(C)(C)[C@@H](C(=O)N1C[C@H](O)CC1C(=O)N[C@H](Cc1ccc(-c2ccccc2)cc1)C(N)=O)n1cc(C2CC2)nn1 (stereo not given in full) [WO2022103411, Example S7]
14 | 20 | Cc1ncsc1-c1ccc(C(C)NC(=O)C2C[C@@H](O)CN2C(=O)[C@H](C2C3CC4CC(C3)CC2C4)n2cc(C3CC3)nn2)c(Cl)c1 (stereo not given in full) [WO2022103411, Example S23]
15 | < 5 | Cc1ncsc1-c1ccc([C@H](C)NC(=O)C2C[C@@H](O)CN2C(=O)[C@H](C2C3CC4CC(C3)CC2C4)n2cc(C3CC3)nn2)cc1 (stereo not given in full) [WO2022103411, Example S20]
16 | 20 | Cc1ncsc1-c1ccc(CNC(=O)[C@@H]2C[C@@H](O)CN2C(=O)[C@@H](n2cc(Cc3ccccc3)nn2)C(C)(C)C)cc1 [WO2022103411, Example S27]
17 | < 5 | Cc1ncsc1-c1ccc(CNC(=O)[C@@H]2C[C@@H](O)CN2C(=O)[C@H](C2CCCCC2)n2cc(C3CC3)nn2)cc1 [WO2022103411, Example S25]
18 | 130 | CCC(C)[C@@H](C(=O)N1C[C@H](O)CC1C(=O)N[C@H](Cc1ccc(-c2ccccc2)cc1)C(N)=O)n1cc(C2CC2)nn1 (stereo not given in full) [WO2022103411, Example S5]
19 | 10 | Cc1ncsc1-c1ccc(CNC(=O)[C@@H]2C[C@@H](O)CN2C(=O)[C@@H](n2cc(C3CC3)nn2)C(C)(C)C)cc1 [WO2022103411, Example S24]
20 | < 5 | CCC(C)(C)[C@@H](C(=O)N1C[C@H](O)C[C@H]1C(=O)N[C@@H](C)c1ccc(-c2scnc2C)cc1)n1cc(C2CC2)nn1 [WO2022103411, Example S21]
